Data published in patent publication US9056840B2, “Coelenterazine analogues and coelenteramide analogues” (JNC Corporation, priority 2010, dated 2015).
“Also recorded” adds a separate entry of the source.

Assays:
Gaussia luciferase = test: Substrate specificity and luminescence activity of Gaussia luciferase; type: biochemical; conditions: measured for 10 seconds, coelenterazine = 100
Protocol: Gaussia luciferase was purified by the method described in Japanese Patent Application KOKAI No. 2008-099669 and provided for use. After 1 μl of Gaussia luciferase (0.024 mg/ml) was dissolved in 100 μl of phosphate buffered saline (manufactured by Sigma Inc.) containing 0.01% Tween 20 (manufactured by Sigma Inc.) and 10 mM EDTA, 1 μl of a solution of coelenterazine or its analogue (1 μg/μl) in ethanol was mixed with the solution to start the luminescence reaction. The luminescence activity was measured for 10 seconds on a luminometer luminescencer-PSN AB2200 (manufactured by Atto Co., Ltd.). The luminescence activity was determined by repeating the measurement described above 3 times and expressed in terms of the maximum luminescence intensity (Imax) of luminescence activity.

apoaequorin [1] = target: T1, apoaequorin (Aequorea victoria, UniProt P07164); test: Luminescence spectra of semi-synthetic aequorins; type: biochemical; conditions: semi-synthetic aequorin, calcium added, 22 to 25° C.
T1 construct: purchased Chisso Corporation
T1 sequence (P07164 other isoform, or with tags, fused parts or gaps with the stated changes): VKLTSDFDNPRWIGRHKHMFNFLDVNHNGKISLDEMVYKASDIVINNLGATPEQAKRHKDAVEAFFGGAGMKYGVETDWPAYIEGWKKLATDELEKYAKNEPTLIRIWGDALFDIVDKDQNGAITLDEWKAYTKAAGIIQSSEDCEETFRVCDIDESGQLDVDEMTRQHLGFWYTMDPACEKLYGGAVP
Protocol: In a quartz cell with light path length of 10 mm, 1 ml of 50 mM Tris-HCl (pH 7.6) containing 1 mM EDTA and 100 μl (100 μg protein) of a solution of the regenerated semi-synthetic aequorin were charged. Next, 100 μl of 50 mM Tris-HCl (pH 7.6) containing 0.1 ml of 10 mM calcium chloride solution was added thereto to start the luminescence reaction. The spectra were measured on a spectrofluorimeter (FP-6500, manufactured by Jasco Co., Ltd.) with the excitation light source turned off. The measurement conditions were bandwidth: 20 nm, response: 0.5 second, scan speed: 2000 nm/min and 22 to 25° C. The luminescence spectra measured were corrected.

apoaequorin [2] = target: T1, apoaequorin; test: Fluorescence spectra of fluorescent proteins formed from semi-synthetic aequorins by Ca2+; type: physicochemical; conditions: for Maximum fluorescence wavelength λmax (nm) / Relative fluorescence intensity (rlu): fluorescent protein generated by calcium from semi-synthetic aequorin, excitation 330 nm, 25° C.; for fluorescence spectra of fluorescent proteins versus emission spectra of semi-synthetic aequorins, in words: same coelenterazine analogue
Protocol: The fluorescence spectra of novel fluorescent proteins formed by the Ca^2+-triggerd reaction from semi-synthetic aequorins in EXAMPLE 3 were measured at 25° C. in a quartz cell (10 mm light path length) using a Jasco FP-6500 spectrofluorometer (excitation wavelength: 330 nm, emission/excitation bandwidth: 3 nm; response: 0.5 sec, scan speed, 1000 nm/min). The fluorescence spectra measured were corrected.

apoaequorin [3] = target: T1, apoaequorin; test: Luminescence patterns of semi-synthetic aequorins, half decay time; type: biochemical; conditions: for Half decay time: semi-synthetic aequorin, time in which luminescence becomes half of maximum, patterns measured for 60 seconds
Protocol: A solution of the regenerated semi-synthetic aequorin was diluted to 10-fold with 20 mM Tris-HCl (pH 7.6) containing 0.1% BSA (manufactured by Sigma, Inc.), 0.01 mM EDTA and 150 mM NaCl. The dilution was dispensed into a 96-well microplate (Nunc #236108) at 5 μl/well. The luminescence reaction was triggered by injecting 50 mM Tris-HCl (pH 7.6) containing 50 mM calcium chloride solution at 100 μl/well. The luminescence patterns for 60 seconds were measured to determine half decay time of the luminescence (a time period in which the luminescence becomes half of the maximum luminescence intensity).

[4] = target: T2, 19 kDa protein from Oplophorus luciferase (Oplophorus gracilirostris, UniProt Q9GV45); test: Substrate specificity and luminescence activity of the 19 kDa protein from Oplophorus luciferase; type: biochemical; conditions: measured for 60 seconds, coelenterazine = 100
T2 construct: made in house
T2 sequence (Q9GV45 28-196): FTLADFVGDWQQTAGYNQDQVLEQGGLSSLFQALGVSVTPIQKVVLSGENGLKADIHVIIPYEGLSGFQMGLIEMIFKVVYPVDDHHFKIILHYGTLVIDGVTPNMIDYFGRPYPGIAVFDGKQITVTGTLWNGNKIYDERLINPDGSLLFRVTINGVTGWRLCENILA
Protocol: The 19 kDa protein from Oplophorus luciferase was purified by the method described in Inouye, S. and Sasaki, S., Protein Express. Purif. (2007) 56: 261-268 and provided for use.
After 1 μl of the 19 kDa protein (2.3 mg/ml) from Oplophorus luciferase containing 1 mM DTT was dissolved in 100 μl of 30 mM Tris-HCl (pH 7.6) containing 10 mM EDTA, 1 μl of a solution of coelenterazine or its analogue (1 μg/μl) in ethanol was added to the solution to start the luminescence reaction, and the luminescence activity was measured for 60 seconds on a luminometer luminescencer-PSN AB2200 (manufactured by Atto Co., Ltd.). The luminescence activity was determined by repeating the measurement described above 3 times and expressed in terms of the maximum luminescence intensity (Imax) of luminescence activity.

apoaequorin [5] = target: T1, apoaequorin; test: Calcium standard curve with semi-synthetic aequorins; type: biochemical; conditions: FIG. 3; Imax versus calcium concentration
Protocol: In 9 ml of 50 mM Tris-HCl (pH 7.6), 1 ml of 1 g/L calcium carbonate standard solution (manufactured by Wako Pure Chemicals) was diluted to prepare 10^−3 M calcium carbonate solution. One milliliter of the resulting 10^−3 M calcium carbonate solution was taken and added to 9 ml of 50 mM Tris-HCl (pH 7.6) to prepare 10^−4 M calcium carbonate solution. Next, 3 ml of the resulting 10^−4 M calcium carbonate solution was taken and added to 6 ml of 50 mM Tris-HCl (pH 7.6) to prepare […] calcium carbonate solution. One milliliter from the 10^−4 M calcium carbonate solution obtained was added to 9 ml of 50 mM Tris-HCl (pH 7.6) to prepare 10^−5 M calcium carbonate solution. Then, 3 ml of the resulting 10^−5 M calcium carbonate solution was taken and added to 6 ml of 50 mM Tris-HCl (pH 7.6) to prepare 3×10^−5 M calcium carbonate solution. A dilution series was prepared by successively repeating the procedures described above to give the 10^−3 M to 10^−8 M calcium standard solutions.
In 5 ml of 50 mM Tris-HCl (pH 7.6) containing 10 mM DTT and 30 mM EDTA, 5 mg of recombinant apoaequorin (manufactured by Chisso Corporation) was dissolved and 100 μg of coelenterazine analogue dissolved in ethanol in an amount of 1.2-fold equivalent was added to the solution. The mixture was allowed to stand at 4° C. overnight to convert into semi-synthetic aequorin. The resulting semi-synthetic aequorin was concentrated using Amicon Ultra-4 (manufactured by Millipore, Inc., molecular weight cut-off: 10,000) to remove an excessive of coelenterazine analogue. The mixture was then washed 3 times with 3 ml of 30 mM Tris-HCl (pH 7.6) containing 0.05 mM EDTA to give the solution of semi-synthetic aequorin containing 0.05 mM EDTA. This semi-synthetic aequorin solution (2.5 mg/ml) was diluted with 20 mM Tris-HCl (pH 7.6) containing 0.1% BSA (manufactured by Sigma), 0.01 mM EDTA and 150 mM NaCl.
The calcium standard solution prepared as above was dispensed into a 96-well microplate (Nunc #236108) at 50 μl/well and 10 μl of the diluted semi-synthetic aequorin solution was injected into 50 μl of various concentration of calcium standard solution. The luminescence intensity was measured for 60 seconds on a luminescence plate reader Centro LB960 (manufactured by Berthold) and expressed in terms of the maximum intensity (Imax) of luminescence. The luminescence intensity was measured on each semi-synthetic aequorin in the same procedures. Semi-synthetic aequorins for practically use were chosen by the maximum intensity (Imax) of luminescence and the calcium standard curve of semi-synthetic aequorin was prepared.

Renilla luciferase = target: T3, Renilla luciferase (Renilla reniformis, UniProt P27652); test: Substrate specificity and luminescence activity of Renilla luciferase; type: biochemical; conditions: measured for 10 seconds, coelenterazine = 100
T3 construct: made in house
T3 sequence (P27652 1-311): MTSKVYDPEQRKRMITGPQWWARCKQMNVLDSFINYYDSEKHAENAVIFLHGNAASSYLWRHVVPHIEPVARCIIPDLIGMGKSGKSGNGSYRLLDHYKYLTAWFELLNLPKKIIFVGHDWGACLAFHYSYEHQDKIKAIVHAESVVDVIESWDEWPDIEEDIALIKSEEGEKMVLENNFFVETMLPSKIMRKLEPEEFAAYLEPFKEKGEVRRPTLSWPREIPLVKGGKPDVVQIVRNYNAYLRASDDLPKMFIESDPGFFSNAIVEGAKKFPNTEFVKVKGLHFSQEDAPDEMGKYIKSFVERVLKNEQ
Protocol: Renilla luciferase was purified by the method described in Inouye, S. & Shimomura, O. Biochem. Biophys. Res. Commun. (1997) 233: 349-353, and used for assay.
After 1 μl of Renilla luciferase (0.45 mg/ml) was dissolved in 100 μl of 30 mM Tris-HCl (pH 7.6) containing 10 mM EDTA, 1 μl of a solution of coelenterazine or its analogue (1 μg/μl) in ethanol was added to the solution to start the luminescence reaction. The luminescence activity was measured for 10 seconds on a luminometer luminescencer-PSN AB2200 (manufactured by Atto Co., Ltd.). The luminescence activity was determined by repeating the measurement of luminescence activity described above 3 times and expressed in terms of the maximum luminescence intensity (Imax) of luminescence activity.

Row | Compound | Luminescence activity Imax (%) (Gaussia luciferase) | Maximum luminescence wavelength λmax (nm) (apoaequorin [1]) | Maximum fluorescence wavelength λmax (nm) (apoaequorin [2]) | Relative fluorescence intensity (rlu) (apoaequorin [2]) | fluorescence spectra of fluorescent proteins versus emission spectra of semi-synthetic aequorins, in words (apoaequorin [2]) | half decay time of luminescence compared to coelenterazine (native aequorin), in words (apoaequorin [3]) | Half decay time (apoaequorin [3]) | Luminescence activity Imax (%) [4] | calcium standard curve with semi-synthetic aequorin, in words (apoaequorin [5]) | Luminescence activity Imax (%) (Renilla luciferase)
1 | O=c1c(Cc2ccc(O)cc2)nc2c(-c3ccccc3)[nH]c(-c3ccc(O)cc3)cn1-2 [Compound 3a, 2-(4-Hydroxybenzyl)-6-(4-hydroxyphenyl)-8-phenylimidazo[1,2-a]pyrazin-3(7H)-one] | 0.00% | 494.0 nm | 501.5 nm | 118.1 rlu | different luminescence spectra and fluorescence spectra | markedly prolonged; also recorded: longer half decay time | 15.7 s | 0.4% | calcium standard curve can be prepared | 0.00%
2 | O=c1c(Cc2ccc(O)cc2)nc2c(/C=C/c3ccccc3)[nH]c(-c3ccc(O)cc3)cn1-2 [Compound 3b] | 0.01% | 447.0 nm | 580.0 nm | 10.3 rlu | markedly different; also recorded: different luminescence spectra and fluorescence spectra | longer half decay time | 0.96 s | 0.07% | calcium standard curve can be prepared | 0.00%
3 | O=c1c(Cc2ccc(O)cc2)nc2c(-c3cccc4ccccc34)[nH]c(-c3ccc(O)cc3)cn1-2 [Compound 3d, 2-(4-Hydroxybenzyl)-6-(4-hydroxyphenyl)-8-(naphthalen-1-yl)imidazo[1,2-a]pyrazin-3(7H)-one] | 0.00% | 480.0 nm | 482.5 nm | 61.8 rlu |  | longer half decay time | 1.10 s | 0.3% | calcium standard curve can be prepared | 0.00%
4 | O=c1c(Cc2ccc(O)cc2)nc2c(-c3ccc4ccccc4c3)[nH]c(-c3ccc(O)cc3)cn1-2 [Compound 3e, 2-(4-Hydroxybenzyl)-6-(4-hydroxyphenyl)-8-(naphthalen-2-yl)imidazo[1,2-a]pyrazin-3(7H)-one] | 0.00% | 507.0 nm | 468.5 nm | 28.0 rlu | markedly different; also recorded: different luminescence spectra and fluorescence spectra | markedly prolonged; also recorded: longer half decay time | 3.42 s | 0.07% | calcium standard curve can be prepared | 0.00%
